Results as given in EP4596561A1, “PHOSPHORUS-CONTAINING COMPOUND, PHARMACEUTICAL COMPOSITION AND USE THEREOF” (Suzhou Genhouse Bio Co., Ltd., priority 2022, dated 2024).
Where two headings read alike, the source gives them in different places.

Assays:
NCI-H28 (NF2 wide-type) = assay: Inhibition of cell proliferation (CellTiter-Lumi); assay type: cell-based; conditions: Homo sapiens, 72 h + another 72 h treatment
Protocol: (§1) NCI-H2052 (NF2 mutant), NCI-H226 (NF2 mutant), NCI-H2452 (NF2 wide-type), NCI-H28 (NF2 wide-type), and MSTO-211H (NF2 wide-type) cells were cultured in RPMI 1640 complete media.
(§2) The normally growing cells described above were digested with a trypsin cell-digesting solution, centrifuged, counted, and then plated in a 96-well plate at a density of 1000 cells per well. Administration was performed 24 h after the cell plating. Inhibitors at different concentration gradients were added at 10 µL per well, and three replicate wells were set for each concentration point. The starting concentration was 20 µM and diluted 8 times with a 4-fold gradient. A corresponding negative control group treated with 0.1% DMSO was also set up. After 72 h of drug treatment, the cell culture plate to be tested was taken out of the incubator. The culture medium in the 96-well plate was pipetted, and 190 µL of fresh RPMI 1640 complete medium was added. Another administration was performed, and the cells were cultured for another 72 h. The 96-well plate was taken out and allowed to equilibrate at room temperature for 10 min. […] After shaking for two minutes, the mixture was reacted at room temperature for 10 min. Then, 150 µL of liquid was pipetted from the transparent 96-well plate and transferred to a white 96-well plate for chemiluminescence reading. The background value was subtracted from the value for each well to calculate the cell survival rate. Survival rate (%) = […]. Sample is the chemiluminescence of the drug-treated group, and Vehicle is the […] of the DMSO control group. A sigmoidal dose-survival rate curve was plotted using a non-linear regression model in the GraphPad Prism 7.0 software, and the IC50 values or GI50 values were calculated.

[1] = test system: NCI-H2452 (NF2 wide-type); assay: Inhibition of cell proliferation (CellTiter-Lumi); assay type: cell-based; conditions: Homo sapiens, 72 h + another 72 h treatment
Protocol: as §1, §2

[2] = test system: YAP-TEAD transcription complex; assay: YAP-TEAD reporter gene assay (dual luciferase, stably transfected 293T cells); assay type: cell-based; conditions: Homo sapiens, HEK-293T
Protocol: YAP-TEAD reporter gene The YAP-TEAD reporter gene assay was performed as follows. Firstly, the 8xGTIIC promoter sequence ([…] GTACTGTTGGTAAA) was constructed into a pGL4.20(luc2-Puro) plasmid, and the TK promoter ([…]) unrelated to the hippo pathway was constructed into a pGL4.78(hRlucCP/Hygro) plasmid, thereby constructing stably transfected 293T cells that can stably and continuously express the transcriptional activity of the YAP-TEAD transcription complex. After selection and identification of individual clones, the clones were grown and maintained in a DMEM medium containing 10% fetal bovine serum, penicillin-streptomycin solution, 1 µg/mL puromycin, and 150 µg/mL hygromycin. To perform reporter gene assays with the compounds to be tested, the well-growing cells described above were plated in a 384-well plate at a cell density of 3000 cells per well, with 90 µL per well. The periphery was sealed with an appropriate amount of PBS to prevent evaporation of water from the peripheral wells. Administration was performed on the next day after the cell plating. The test compounds were added at different concentration gradients, and three replicate wells were set for each concentration point. The compound concentration started at 5 µM and was diluted seven times with a 5-fold gradient. A corresponding negative control group treated with DMSO was also set up. After 24 h of drug treatment, the detection reagents were prepared first. The Dual-Lumi™ Firefly luciferase detection reagent and Dual-Lumi™ Renilla luciferase detection buffer were dissolved and brought to room temperature. […]. According to the amount of 100 µL of Dual-Lumi™ Renilla luciferase detection working solution required for the detection of each sample, an appropriate amount of Dual-Lumi™ Renilla luciferase detection working solution was prepared. […]. The cell culture plate was taken out and allowed to equilibrate at room temperature for 10 min (usually no more than 30 min). Then, 100 µL of Dual-Lumi™ Firefly luciferase detection reagent was added to each well of a 96-well plate (25 µL per well for the 384-well plate), and the mixture was mixed well. The mixture was then incubated at room temperature (about 25 °C) for 10 min to stabilize the luminescent signal, and then chemiluminescence was detected using a multimode microplate reader with a chemiluminescence detection function. Subsequently, the detection of Renilla luciferase began. Firstly, 100 µL of Dual-Lumi™ Renilla luciferase detection working solution was added to each well of a […] (25 µL per well for the 384-well plate), and the mixture was mixed well. The mixture was then incubated at room temperature (about 25 °C) for 10 min to stabilize the luminescent signal. Finally, chemiluminescence was detected using a multimode microplate reader with a chemiluminescence detection function. The obtained data were analyzed using GraphPad Prism 7.0 software. A sigmoidal dose-survival rate curve was plotted using a non-linear regression model, and the IC50 values were calculated.

[3] = Saturated solubility in FaSSIF solution; assay type: physicochemical; conditions: room temperature, stirred overnight
Protocol: Efficacy Experimental Example 9: Test of Saturated Solubility of Samples in FaSSIF Solution
About 0.21 g of sodium hydroxide, about 2.24 g of sodium dihydrogen phosphate dihydrate, and 3.09 g of sodium chloride were weighed out and dissolved in 500 mL of water, and after dissolution, the pH was adjusted to 6.5 with 1 N sodium hydroxide or 1 N hydrochloric acid.
112 mg of FaSSIF solid was weighed out and placed in a 50 mL volumetric flask, and the buffer described above was added for dissolution. The resulting solution was diluted to volume, mixed well, and left to stand at room temperature for 2 h or more.
Test sample: About 1 mg of the test sample was taken, and 1 mL of FaSSIF solution was added. The mixture was stirred at room temperature overnight and centrifuged, and the supernatant was collected and injected for analysis.
Reference sample solution: About 1.5 mg of the test sample was precisely weighed out and placed in a 50 mL volumetric flask, and DMF was added for dissolution. The resulting solution was diluted to volume and mixed well.
The peak of the main component of the reference sample and the peak of the test sample with the same retention time were integrated, and the concentration thereof in the FaSSIF solution was calculated according to the external standard method.

in vivo = conditions: mouse, plasma, po, 100 mg/kg
Protocol: After adding 5% DMSO, the mixture was vortexed. 15% HS15 was then added, and the mixture was vortexed again. Finally, a 10% aqueous cyclodextrin solution was added, and the resulting mixture was vortexed to prepare the final concentration solution or suspension.

[4] = Pharmacokinetic test in mice (low dose); assay type: in vivo, Balb/c mice; conditions: mouse, plasma, mice; for AUC(0-t): read-out: AUClast; for half-life: read-out: T1/2 (converted)
Protocol: The compounds of the present disclosure were administered to Balb/c mice by single intravenous injection and oral gavage, and the plasma of the mice at each time point was collected. The concentration of the compounds to be tested in BALB/C plasma was detected using the LC-MS/MS analysis method, and pharmacokinetic analysis was performed.
The mixture was vortexed, shaken, and ultrasonicated. The remaining volume of 25% sulfobutylether-β-cyclodextrin (sterilized) was added to prepare the final concentration solution or suspension.
Intravenous injection formulations will be directly administered in animal experiments without filtration. The IV drug preparation vials were disinfected in an infrared sterilization cabinet one day in advance.
Intravenous injection: Administration was performed via the tail vein. After the needle was inserted, the syringe was slowly […].
Gavage: Gavage needle and syringe of an appropriate type were selected. The gavage needle was inserted from the root of the tongue into the esophagus until it reached near the cardia of the stomach, then the drug formulation was injected, and the gavage needle was withdrawn. When disposable plastic gavage needles were used, one needle was used for each group.
At each time point, 60 µL of whole blood was collected from the submandibular vein or tail vein (except for the IV group). The blood sample was added to a pre-cooled anticoagulant blood collection tube containing anticoagulant EDTA-K2 (1 µL, 15% EDTA-K2 solution), placed on wet ice, and centrifuged (3000 g, 4 °C, 10 min) within 1 h. The plasma was immediately collected after centrifugation, transferred to an EP tube, and stored at -90 °C to -60 °C.
Plasma concentration detection: A developed LC-MS/MS method was used to detect the compounds in plasma.
The plasma concentration-time data were analyzed using a non-compartmental model in the Phoenix® WinNonlin® (Version 8.2, Pharsight, Mountain View, CA).

[5] = 293T reporter cells, 24 h of drug treatment, read-out: IC50

SMILES	IC50 (NCI-H28 (NF2 wide-type)) [nM]	IC50 [1] [nM]	IC50 [2, 5] [nM]	IC50 ([2]; 24 h) [nM]	also measured
CP(C)(=O)c1ccc2c(Oc3ccc(Cl)cc3)cccc2c1 [Example 28]	> 20000	> 50000	283		
Cn1cnc(-c2cc(P(C)(C)=O)ccc2Nc2ccc3c(c2)OC(F)(F)O3)c1 [Example 30]				23.7	
Cn1cnc(-c2cc(P(C)(C)=O)ccc2Nc2ccc(Cl)cc2)c1 [Example 32]				78.5	
CP(C)(=O)c1cnc(Nc2ccc(C(F)(F)F)cc2)c(-c2ccccn2)c1 [Example 33]				19.8	
CP(C)(=O)c1cnc(Nc2ccc(S(F)(F)(F)(F)F)cc2)c(-c2cn3c(n2)CCC3)c1 [Example 37]				5.93	
CP(C)(=O)c1cnc(Nc2ccc(Cl)cc2)c(-c2cn3c(n2)CCC3)c1 [Example 38]				28.7	

Now from value to compound, other results behind:

IC50 (NCI-H28 (NF2 wide-type)) [nM]	IC50 [1] [nM]	IC50 [2, 5] [nM]	SMILES	IC50 ([2]; 24 h) [nM]	also measured
> 1250	> 1250	4.65	Cc1cc(Oc2ccc(C(F)(F)F)cc2)c2ccc(P(C)(C)=O)cc2c1 [Example 29]		FaSSIF(pH = 6.5) [3]: 223.4 ug/mL; AUC(0-t) (in vivo): 2160 µM·h; AUC(0-t) ([4]; IV 2 mg/kg): 50.8 µM·h; clearance ([4]; IV 2 mg/kg, read-out: Cl (converted)): 0.4 mL/min/kg; half-life ([4]; IV 2 mg/kg): 63.5 h; bioavailability ([4]; PO 10 mg/kg vs IV 2 mg/kg, read-out: F%): 99%; AUC(0-t) ([4]; PO 10 mg/kg): 251 µM·h; Cmax ([4]; PO 10 mg/kg, read-out: Cmax): 13.3 µM; half-life ([4]; PO 10 mg/kg): 17 h
		61.9	Cn1cnc(-c2cc(P(C)(C)=O)ccc2Nc2ccc(S(F)(F)(F)(F)F)cc2)c1 [Example 31]		
> 5000	> 5000	191	Cn1cnc(-c2cc(P(C)(C)=O)cnc2Nc2ccc3c(c2)OC(F)(F)O3)c1 [Example 34]		
> 20000	> 20000	39.2	Cn1cnc(-c2cc(P(C)(C)=O)cnc2Nc2ccc(S(F)(F)(F)(F)F)cc2)c1 [Example 36]		
> 1250	> 1250	32.4	CP(C)(=O)c1cnc(Nc2ccc3c(c2)OC(F)(F)O3)c(-c2cn3c(n2)CCC3)c1 [Example 39]		
